From article PMC9085577, “Discovery of a Potent and Orally Active Dual GPBAR1/CysLT1R Modulator for the Treatment of Metabolic Fatty Liver Disease” (Frontiers in Pharmacology, 2022)

Test system: liver transcriptome
Test: AmpliSeq liver transcriptome of HFD-F mice
Type: in vivo
Conditions: liver
From the text: C57BL/6J male mice were fed a high fat diet (HFD) containing 59 KJ% fat plus 1% cholesterol, w/o sugar (ssniff ® EF R/M acc. D12330 mod. 22,7 ME/kg) and fructose (HFD-F) in drinking water (42 g/L), or normal chow diet for 61 days. Food intake was estimated as the difference of weight between the offered and the remnant amount of food at 3-days intervals. The food was provided as pressed pellets and the residual spillage was not considered. After 7 days, HFD-F mice were randomized to receive HFD-F alone or in combination with compound 2 (30 mg/kg/day) by gavage until the end of the experiment. Doses of each agent were chosen according to previously published data. Mice were housed under controlled temperature (22°C) and photoperiods (12:12-h light/dark cycle), allowed unrestricted access to standard mouse chow and tap water. The experimental protocol was approved by the Animal Care and Use Committee of the University of Perugia and by the Italian Minister of Health and Istituto Superiore di Sanità (Italy) and was in agreement with the European guidelines for use of experimental animals (permission n. 583/2017-PR). The general health of the animals was monitored daily by the Veterinarian in the animal facility. At the day of sacrifice, fed mice were deeply anesthetized with a mixture of tiletamine hypochloride and zolazepam hypochloride/xylazine at a dose of 50/5 mg/kg and sacrificed before 12 a.m.
High-quality RNA was extracted from mice livers, using the Direct-zol™ RNA MiniPrep w/Zymo-Spin™ IIC Columns (Zymo Research, Irvine, CA) according to the manufacturer’s instructions. RNA quality and quantity were assessed with the Qubit® RNA HS Assay Kit and a Qubit 3.0 fluorometer (Invitrogen, Carlsbad, CA) followed by agarose gel electrophoresis. Libraries were generated using the Ion AmpliSeq™ Transcriptome Mouse Gene Expression Core Panel and Chef-Ready Kit (Comprehensive evaluation of AmpliSeq transcriptome, a whole transcriptome RNA sequencing methodology) (Thermo Fisher Scientific, Waltham, MA). Briefly, 10 ng of RNA was reverse transcribed with SuperScript™ Vilo™ cDNA Synthesis Kit (Thermo Fisher Scientific, Waltham, MA) before library preparation on the Ion Chef™ instrument (Thermo Fisher Scientific, Waltham, MA). The resulting cDNA was amplified to prepare barcoded libraries using the Ion Code™ PCR Plate, and the Ion AmpliSeq™ Transcriptome Mouse Gene Expression Core Panel (Thermo Fisher Scientific, Waltham, MA), Chef-Ready Kit, according to the manufacturer’s instructions. Barcoded libraries were combined to a final concentration of 100 p.m., and used to prepare Template-Positive Ion Sphere™ (Thermo Fisher Scientific, Waltham, MA) Particles to load on Ion 540™ Chips, using the Ion 540™ Kit-Chef (Thermo Fisher Scientific, Waltham, MA). Sequencing was performed on an Ion S5™ Sequencer with Torrent Suite™ Software v6 (Thermo Fisher Scientific, Waltham, MA). The analyses were performed with a range of fold <−2 and >+2 and a p value <0.05, using Transcriptome Analysis Console Software (version 4.0.1), certified for AmpliSeq analysis (Thermo-Fisher). The transcriptomic data have been deposited as dataset on Mendeley data repository (reference number linking to the repository: Fiorucci, Stefano; Biagioli, Michele; Marchianò, Silvia; Di Giorgio, Cristina (2021), “Discovery of potent dual GPBAR1/CysLT1R modulator for the treatment of metabolic fatty liver disease,” Mendeley Data, V1, doi: 10.17632/6dnrk9fc72.1).

SMILES: O=C(O)c1cccc(-c2ccc(OCc3ccc4ccccc4n3)cc2)c1 [Compound 2, 4'-(quinolin-2-ylmethoxy)-[1,1′-biphenyl]-3-carboxylic acid]
- Gdf15 transcript Avg (log2) (HFD + compound 2): 3.91 log2
- Glipr1 transcript Avg (log2) (HFD + compound 2): 0.71 log2
- Glipr2 transcript Avg (log2) (HFD + compound 2): 1.26 log2
- Gm16063 transcript Avg (log2) (HFD + compound 2): 1.79 log2
- Gm30692 transcript Avg (log2) (HFD + compound 2): 0.5 log2
- Gm31555 transcript Avg (log2) (HFD + compound 2): 1.31 log2
- Gm31649 transcript Avg (log2) (HFD + compound 2): 2.75 log2
- Gm36796 transcript Avg (log2) (HFD + compound 2): 1.53 log2
- Gnat1 transcript Avg (log2) (HFD + compound 2): 3.01 log2
- Gngt1 transcript Avg (log2) (HFD + compound 2): 1.67 log2
- Gpnmb transcript Avg (log2) (HFD + compound 2): 0.3 log2
- Hnf4aos transcript Avg (log2) (HFD + compound 2): 3.75 log2
- Hnrnpa0 transcript Avg (log2) (HFD + compound 2): 2.3 log2
- Hspa5 transcript Avg (log2) (HFD + compound 2): 8.51 log2
- Igip transcript Avg (log2) (HFD + compound 2): 2.38 log2
- Il1b transcript Avg (log2) (HFD + compound 2): 1.8 log2
- Il1rn transcript Avg (log2) (HFD + compound 2): 1.01 log2
- Insig2 transcript Avg (log2) (HFD + compound 2): 5.39 log2
- Itgam transcript Avg (log2) (HFD + compound 2): 0.58 log2
- Kif20a transcript Avg (log2) (HFD + compound 2): 1.39 log2
- LOC108167447 transcript Avg (log2) (HFD + compound 2): 2.05 log2
- LOC108168323 transcript Avg (log2) (HFD + compound 2): 1.86 log2
- Lactb2 transcript Avg (log2) (HFD + compound 2): 3.85 log2
- Ly6d transcript Avg (log2) (HFD + compound 2): 1.72 log2
- Meg3 transcript Avg (log2) (HFD + compound 2): 4.04 log2
- Mettl9 transcript Avg (log2) (HFD + compound 2): 4.9 log2
- Mki67 transcript Avg (log2) (HFD + compound 2): 1.5 log2
- Mogat1 transcript Avg (log2) (HFD + compound 2): 2.35 log2
- Mthfd2 transcript Avg (log2) (HFD + compound 2): 1.97 log2
- Mvd transcript Avg (log2) (HFD + compound 2): 1.98 log2
- Nat8 transcript Avg (log2) (HFD + compound 2): 3.26 log2
- Neat1 transcript Avg (log2) (HFD + compound 2): 7.09 log2
- Npas2 transcript Avg (log2) (HFD + compound 2): 0.62 log2
- Nr4a1 transcript Avg (log2) (HFD + compound 2): 3.27 log2
- Nrep transcript Avg (log2) (HFD + compound 2): 6.14 log2
- Nuak2 transcript Avg (log2) (HFD + compound 2): 5.66 log2
- Pcbp1 transcript Avg (log2) (HFD + compound 2): 2.29 log2
- Pcp4l1 transcript Avg (log2) (HFD + compound 2): 3.46 log2
- Pdilt transcript Avg (log2) (HFD + compound 2): 4.25 log2
- Pdpn transcript Avg (log2) (HFD + compound 2): 0.96 log2
- Per3 transcript Avg (log2) (HFD + compound 2): 5.27 log2
- Plau transcript Avg (log2) (HFD + compound 2): 1.27 log2
- Plaur transcript Avg (log2) (HFD + compound 2): 1.66 log2
- Pld6 transcript Avg (log2) (HFD + compound 2): 4.01 log2
- Plekhg3 transcript Avg (log2) (HFD + compound 2): 6.24 log2
- Plxnc1 transcript Avg (log2) (HFD + compound 2): 2.12 log2
- Pnpla3 transcript Avg (log2) (HFD + compound 2): 4 log2
- Podn transcript Avg (log2) (HFD + compound 2): 3.56 log2
- Ppp1r3c transcript Avg (log2) (HFD + compound 2): 4.08 log2
- Prox1 transcript Avg (log2) (HFD + compound 2): 7.62 log2
- Psat1 transcript Avg (log2) (HFD + compound 2): 0.72 log2
- Ptgs2 transcript Avg (log2) (HFD + compound 2): 0.21 log2
- Raet1e transcript Avg (log2) (HFD + compound 2): 1.49 log2
- Raet1d transcript Avg (log2) (HFD + compound 2): 2.83 log2
- Ralbp1 transcript Avg (log2) (HFD + compound 2): 3.21 log2
- Rhob transcript Avg (log2) (HFD + compound 2): 3.81 log2
- Rrs1 transcript Avg (log2) (HFD + compound 2): 1.59 log2
- Saa4 transcript Avg (log2) (HFD + compound 2): 9.44 log2
- Sart3 transcript Avg (log2) (HFD + compound 2): 4.81 log2
- Sbk1 transcript Avg (log2) (HFD + compound 2): 4.33 log2
- Sec11c transcript Avg (log2) (HFD + compound 2): 3.53 log2
- Senp1 transcript Avg (log2) (HFD + compound 2): 3.87 log2
- Serpina7 transcript Avg (log2) (HFD + compound 2): 4.57 log2
- Serpine1 transcript Avg (log2) (HFD + compound 2): 2.19 log2
- Slc16a1 transcript Avg (log2) (HFD + compound 2): 2.98 log2
- Slc17a8 transcript Avg (log2) (HFD + compound 2): 2.05 log2
- Slc39a8 transcript Avg (log2) (HFD + compound 2): 3.52 log2
- Slc40a1 transcript Avg (log2) (HFD + compound 2): 3.94 log2
- Slc46a3 transcript Avg (log2) (HFD + compound 2): 4.69 log2
- Spon2 transcript Avg (log2) (HFD + compound 2): 1.99 log2
- Sqle transcript Avg (log2) (HFD-F + compound 2): 1.02 log2
- Stfa3 transcript Avg (log2) (HFD-F + compound 2): 0 log2
- Taok3 transcript Avg (log2) (HFD-F + compound 2): 6.27 log2
- Tk1 transcript Avg (log2) (HFD-F + compound 2): 5.13 log2
- Tmx1 transcript Avg (log2) (HFD-F + compound 2): 5.44 log2
- Tnf transcript Avg (log2) (HFD-F + compound 2): 0.14 log2
- Tnfrsf23 transcript Avg (log2) (HFD-F + compound 2): 0.63 log2
- Tnnc1 transcript Avg (log2) (HFD-F + compound 2): 1.54 log2
- Tsku transcript Avg (log2) (HFD-F + compound 2): 4.72 log2
- Ubqln2 transcript Avg (log2) (HFD-F + compound 2): 2.22 log2
